Measurements reported in patent publication US20260184706A1, “PHENYLSULFONAMIDE DERIVATIVES, PREPARATION METHOD THEREFOR, AND PHARMACEUTICAL COMPOSITION FOR PREVENTION OR TREATMENT OF CANCER CONTAINING SAME AS ACTIVE INGREDIENT” (Korea Research Institute of Chemical Technology, priority 2022, published 2026).

Assays:
[1] = molecular target: recombinant human GCN2 protein (Homo sapiens, UniProt Q9P2K8); test: General control nonderepressible 2 (GCN2) inhibitory capacity, 33P-ATP filter assay; type: biochemical; details: recombinant human GCN2, 70 uM [gamma-33P-ATP], 40 minutes, room temperature
Experimental: <Experimental Example 2> Evaluation of General Control Nonderepressible 2 (GCN2) Inhibitory Capacity
(§1) A recombinant human GCN2 protein was mixed with the compound in a reaction solution (20 mM Tris/HCl pH8.5, 0.2 mM EDTA, 0.1% Tween, 100 mM NaCl, 300 μM RSRSRSRSRSRSRSR, 10 mM Magnesium acetate, 70 uM [gamma-33P-ATP]) and reacted at room temperature for 40 minutes. Then, the reaction was terminated by adding phosphoric acid (0.5%) to the reaction mixture, and 10 ul of the reaction solution was dropped onto a P30 filter. The filter was washed four times in a 0.425% phosphoric acid solution for 4 minutes, then washed once more in methanol, dried, and the GCN2 activity was measured by scintillation counting. […] The compound was diluted by 1/3 from the highest concentration of 1 uM and treated with a total of 9 concentrations to evaluate the degree of inhibition.

[2] = molecular target: T1, recombinant human PERK protein (Homo sapiens, UniProt Q9NZJ5); test: PKR-like endoplasmic reticulum kinase (PERK) inhibitory capacity, 33P-ATP filter assay; type: biochemical; details: 15 uM [gamma-33P-ATP], 40 minutes, room temperature
T1 sequence (Q9NZJ5 30-1116): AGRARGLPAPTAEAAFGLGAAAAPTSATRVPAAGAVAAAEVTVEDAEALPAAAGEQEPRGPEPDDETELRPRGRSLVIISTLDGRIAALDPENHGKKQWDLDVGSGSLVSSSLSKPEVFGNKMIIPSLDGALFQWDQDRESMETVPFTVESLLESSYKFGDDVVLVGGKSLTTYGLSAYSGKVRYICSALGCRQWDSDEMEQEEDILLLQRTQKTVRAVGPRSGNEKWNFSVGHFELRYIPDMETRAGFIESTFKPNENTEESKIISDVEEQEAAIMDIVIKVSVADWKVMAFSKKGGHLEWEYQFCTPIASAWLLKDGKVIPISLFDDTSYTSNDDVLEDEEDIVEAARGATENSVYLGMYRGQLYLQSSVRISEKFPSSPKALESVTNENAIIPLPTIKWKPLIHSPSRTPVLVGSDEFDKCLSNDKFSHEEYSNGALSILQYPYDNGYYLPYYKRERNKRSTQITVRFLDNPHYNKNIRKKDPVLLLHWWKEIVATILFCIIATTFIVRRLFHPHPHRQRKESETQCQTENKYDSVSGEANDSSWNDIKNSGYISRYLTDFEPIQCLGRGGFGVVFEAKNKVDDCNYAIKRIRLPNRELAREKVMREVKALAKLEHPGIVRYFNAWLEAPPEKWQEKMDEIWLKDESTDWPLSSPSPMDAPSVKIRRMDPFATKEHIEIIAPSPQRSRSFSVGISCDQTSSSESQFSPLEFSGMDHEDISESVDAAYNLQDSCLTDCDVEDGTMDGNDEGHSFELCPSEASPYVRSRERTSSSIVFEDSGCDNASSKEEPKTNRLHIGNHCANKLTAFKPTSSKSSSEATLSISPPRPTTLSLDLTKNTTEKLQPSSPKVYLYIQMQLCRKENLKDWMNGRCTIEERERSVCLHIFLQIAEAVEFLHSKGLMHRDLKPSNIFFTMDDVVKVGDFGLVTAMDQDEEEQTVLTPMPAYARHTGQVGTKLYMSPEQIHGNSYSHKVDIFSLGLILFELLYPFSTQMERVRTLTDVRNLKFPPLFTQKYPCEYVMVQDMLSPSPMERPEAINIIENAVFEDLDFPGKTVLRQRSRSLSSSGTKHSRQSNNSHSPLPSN
Experimental: <Experimental Example 1> Evaluation of PKR-Like Endoplasmic Reticulum Kinase (PERK) Inhibitory Capacity
as §1, with “PERK” for “GCN2”, “(8” for “(20”, “MOPS pH 7.0,” for “Tris/HCl pH8.5,”, “EDTA,” for “EDTA, 0.1% Tween, 100 mM NaCl,”, “uM” for “μM”, “15” for “70”

Sequence of recombinant human GCN2 protein (Q9P2K8 whole entry): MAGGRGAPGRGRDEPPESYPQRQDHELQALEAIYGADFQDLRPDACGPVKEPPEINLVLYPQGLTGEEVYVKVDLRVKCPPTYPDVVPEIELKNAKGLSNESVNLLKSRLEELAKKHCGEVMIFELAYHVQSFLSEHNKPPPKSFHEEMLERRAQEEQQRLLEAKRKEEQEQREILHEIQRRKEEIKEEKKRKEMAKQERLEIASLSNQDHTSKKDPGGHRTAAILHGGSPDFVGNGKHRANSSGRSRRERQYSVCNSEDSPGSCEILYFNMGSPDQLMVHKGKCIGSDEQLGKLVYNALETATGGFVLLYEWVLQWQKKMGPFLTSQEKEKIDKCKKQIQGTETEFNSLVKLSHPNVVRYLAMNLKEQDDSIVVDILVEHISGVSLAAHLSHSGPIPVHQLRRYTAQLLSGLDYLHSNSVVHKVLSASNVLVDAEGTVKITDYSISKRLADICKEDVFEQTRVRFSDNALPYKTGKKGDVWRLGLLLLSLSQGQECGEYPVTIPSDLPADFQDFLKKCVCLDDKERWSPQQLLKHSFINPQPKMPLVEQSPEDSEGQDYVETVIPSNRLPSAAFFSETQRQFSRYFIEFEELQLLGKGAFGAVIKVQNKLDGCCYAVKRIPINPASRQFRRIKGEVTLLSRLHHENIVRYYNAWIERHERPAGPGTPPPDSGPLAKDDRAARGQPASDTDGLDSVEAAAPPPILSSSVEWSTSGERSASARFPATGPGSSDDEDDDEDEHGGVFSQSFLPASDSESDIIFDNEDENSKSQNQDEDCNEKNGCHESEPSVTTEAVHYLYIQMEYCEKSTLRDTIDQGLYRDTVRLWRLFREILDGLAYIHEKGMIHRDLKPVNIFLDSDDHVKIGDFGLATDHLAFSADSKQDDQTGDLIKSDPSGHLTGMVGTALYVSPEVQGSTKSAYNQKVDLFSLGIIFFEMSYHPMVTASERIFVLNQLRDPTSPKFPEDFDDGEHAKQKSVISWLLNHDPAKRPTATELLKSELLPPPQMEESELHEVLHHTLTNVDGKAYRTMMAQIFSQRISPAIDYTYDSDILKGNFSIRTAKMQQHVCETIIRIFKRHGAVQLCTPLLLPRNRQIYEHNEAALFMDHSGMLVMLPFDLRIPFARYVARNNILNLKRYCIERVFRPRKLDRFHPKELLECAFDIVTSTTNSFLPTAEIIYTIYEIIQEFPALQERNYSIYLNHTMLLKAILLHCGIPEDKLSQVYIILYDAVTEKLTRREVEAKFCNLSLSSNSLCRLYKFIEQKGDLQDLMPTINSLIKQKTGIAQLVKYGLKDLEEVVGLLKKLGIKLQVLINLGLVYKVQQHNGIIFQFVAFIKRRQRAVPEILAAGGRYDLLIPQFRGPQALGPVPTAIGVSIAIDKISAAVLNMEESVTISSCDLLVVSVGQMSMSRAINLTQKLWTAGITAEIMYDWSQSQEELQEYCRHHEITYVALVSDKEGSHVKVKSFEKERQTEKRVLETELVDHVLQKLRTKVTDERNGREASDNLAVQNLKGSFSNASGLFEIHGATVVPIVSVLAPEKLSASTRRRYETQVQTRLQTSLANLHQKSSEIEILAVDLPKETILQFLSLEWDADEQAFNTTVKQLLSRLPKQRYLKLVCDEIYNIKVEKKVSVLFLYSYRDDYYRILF

SMILES	IC50 [1]	IC50 [2]
Cc1nn(C)c(C(F)(F)F)c1S(=O)(=O)Nc1ccc(F)c(-c2cc3cnc(N)nc3n(C)c2=O)c1F [Example 1, N-(3-(2-amino-8-methyl-7-oxo-7,8-dihydropyrido[2,3-d]pyrimidin-6-yl)-2,4-difluorophenyl)-1,3-dimethyl-5-(trifluoromethyl)-1H-pyrazole-4-sulfonamide]	100 to 300 nM	300 to 1000 nM
Cc1nn(C)c(Cl)c1S(=O)(=O)Nc1ccc(F)c(-c2cc3cnc(N)nc3n(C)c2=O)c1F [Example 2, N-(3-(2-amino-8-methyl-7-oxo-7,8-dihydropyrido[2,3-d]pyrimidin-6-yl)-2,4-difluorophenyl)-5-chloro-1,3-dimethyl-1H-pyrazole-4-sulfonamide]	> 1000 nM	300 to 1000 nM
Cc1nn(C)c(C)c1S(=O)(=O)Nc1ccc(F)c(-c2cc3cnc(N)nc3n(C)c2=O)c1F [Example 3, N-(3-(2-amino-8-methyl-7-oxo-7,8-dihydropyrido[2,3-d]pyrimidin-6-yl)-2,4-difluorophenyl)-1,3,5-trimethyl-1H-pyrazole-4-sulfonamide]	300 to 1000 nM	> 1000 nM
COc1ncc(Cl)cc1S(=O)(=O)Nc1ccc(F)c(-c2cc3cnc(N)nc3n(C)c2=O)c1F [Example 4, N-(3-(2-amino-8-methyl-7-oxo-7,8-dihydropyrido[2,3-d]pyrimidin-6-yl)-2,4-difluorophenyl)-5-chloro-2-methoxypyridine-3-sulfonamide]	> 1000 nM	< 100 nM
Cc1n[nH]c(C)c1S(=O)(=O)Nc1ccc(F)c(-c2cc3cnc(N)nc3n(C)c2=O)c1F [Example 5, N-(3-(2-amino-8-methyl-7-oxo-7,8-dihydropyrido[2,3-d]pyrimidin-6-yl)-2,4-difluorophenyl)-3,5-dimethyl-1H-pyrazole-4-sulfonamide]	> 1000 nM	> 1000 nM
Cn1c(=O)c(-c2c(F)ccc(NS(=O)(=O)c3ccc(Cl)nc3)c2F)cc2cnc(N)nc21 [Example 6, N-(3-(2-amino-8-methyl-7-oxo-7,8-dihydropyrido[2,3-d]pyrimidin-6-yl)-2,4-difluorophenyl)-6-chloropyridine-3-sulfonamide]	> 1000 nM	> 1000 nM
Cn1ccc2c(S(=O)(=O)Nc3ccc(F)c(-c4cc5cnc(N)nc5n(C)c4=O)c3F)cccc21 [Example 7, N-(3-(2-amino-8-methyl-7-oxo-7,8-dihydropyrido[2,3-d]pyrimidin-6-yl)-2,4-difluorophenyl)-1-methyl-1H-indole-4-sulfonamide]	100 to 300 nM	< 100 nM
Cc1nn(C(F)F)c(C)c1S(=O)(=O)Nc1ccc(F)c(-c2cc3cnc(N)nc3n(C)c2=O)c1F [Example 8, N-(3-(2-amino-8-methyl-7-oxo-7,8-dihydropyrido[2,3-d]pyrimidin-6-yl)-2,4-difluorophenyl)-1-(difluoromethyl)-3,5-dimethyl-1H-pyrazole-4-sulfonamide]	> 1000 nM	> 1000 nM
Cc1c(S(=O)(=O)Nc2ccc(F)c(-c3cc4cnc(N)nc4n(C)c3=O)c2F)c(Cl)nn1C [Example 9, N-(3-(2-amino-8-methyl-7-oxo-7,8-dihydropyrido[2,3-d]pyrimidin-6-yl)-2,4-difluorophenyl)-3-chloro-1,5-dimethyl-1H-pyrazole-4-sulfonamide]	300 to 1000 nM	> 1000 nM
Cc1c(S(=O)(=O)Nc2ccc(F)c(-c3cc4cnc(N)nc4n(C)c3=O)c2F)c(CO)nn1C [Example 10, N-(3-(2-amino-8-methyl-7-oxo-7,8-dihydropyrido[2,3-d]pyrimidin-6-yl)-2,4-difluorophenyl)-3-(hydroxymethyl)-1,5-dimethyl-1H-pyrazole-4-sulfonamide]	> 1000 nM	> 1000 nM
Cn1c(=O)c(-c2c(F)ccc(NS(=O)(=O)c3cccnc3Cl)c2F)cc2cnc(N)nc21 [Example 11, N-(3-(2-amino-8-methyl-7-oxo-7,8-dihydropyrido[2,3-d]pyrimidin-6-yl)-2,4-difluorophenyl)-2-chloropyridine-3-sulfonamide]	100 to 300 nM	100 to 300 nM
Cn1c(=O)c(-c2c(F)ccc(NS(=O)(=O)c3cc(F)ccc3F)c2F)cc2cnc(N)nc21 [Example 12, N-(3-(2-amino-8-methyl-7-oxo-7,8-dihydropyrido[2,3-d]pyrimidin-6-yl)-2,4-difluorophenyl)-2,5-difluorobenzene sulfonamide]	100 to 300 nM	< 100 nM
Cc1noc(C)c1S(=O)(=O)Nc1ccc(F)c(-c2cc3cnc(N)nc3n(C)c2=O)c1F [Example 13, N-(3-(2-amino-8-methyl-7-oxo-7,8-dihydropyrido[2,3-d]pyrimidin-6-yl)-2,4-difluorophenyl)-3,5-dimethylisoxazole-4-sulfonamide]	100 to 300 nM	300 to 1000 nM
Cn1c(=O)c(-c2c(F)ccc(NS(=O)(=O)c3cc(Cl)ccc3Cl)c2F)cc2cnc(N)nc21 [Example 14, N-(3-(2-amino-8-methyl-7-oxo-7,8-dihydropyrido[2,3-d]pyrimidin-6-yl)-2,4-difluorophenyl)-2,5-dichlorobenzenesulfonamide]	< 100 nM	< 100 nM
Cn1c(=O)c(-c2c(F)ccc(NS(=O)(=O)c3c(Cl)nc4sccn34)c2F)cc2cnc(N)nc21 [Example 15, N-(3-(2-amino-8-methyl-7-oxo-7,8-dihydropyrido[2,3-d]pyrimidin-6-yl)-2,4-difluorophenyl)-6-chloroimidazo[2,1-b]thiazole-5-sulfonamide]	300 to 1000 nM	100 to 300 nM
Cn1c(=O)c(-c2c(F)ccc(NS(=O)(=O)c3cccc4ccccc34)c2F)cc2cnc(N)nc21 [Example 16, N-(3-(2-amino-8-methyl-7-oxo-7,8-dihydropyrido[2,3-d]pyrimidin-6-yl)-2,4-difluorophenyl)naphthalene-1-sulfonamide]	100 to 300 nM	< 100 nM
Cn1cc(S(=O)(=O)Nc2ccc(F)c(-c3cc4cnc(N)nc4n(C)c3=O)c2F)c(C(F)(F)F)n1 [Example 17, N-(3-(2-amino-8-methyl-7-oxo-7,8-dihydropyrido[2,3-d]pyrimidin-6-yl)-2,4-difluorophenyl)-1-methyl-3-(trifluoromethyl)-1H-pyrazole-4-sulfonamide]	300 to 1000 nM	100 to 300 nM
Cn1c(=O)c(-c2c(F)ccc(NS(=O)(=O)c3cc(C(F)(F)F)ccc3Cl)c2F)cc2cnc(N)nc21 [Example 18, N-(3-(2-amino-8-methyl-7-oxo-7,8-dihydropyrido[2,3-d]pyrimidin-6-yl)-2,4-difluorophenyl)-2-chloro-5-(trifluoromethyl)benzenesulfonamide]	100 to 300 nM	< 100 nM
Cn1c(=O)c(-c2c(F)ccc(NS(=O)(=O)c3ccc(Cl)s3)c2F)cc2cnc(N)nc21 [Example 19, N-(3-(2-amino-8-methyl-7-oxo-7,8-dihydropyrido[2,3-d]pyrimidin-6-yl)-2,4-difluorophenyl)-5-chlorothiophene-2-sulfonamide]	< 100 nM	< 100 nM
CNc1ncc2cc(-c3c(F)ccc(NS(=O)(=O)c4cc(Cl)ccc4Cl)c3F)c(=O)n(C)c2n1 [Example 20, 2,5-dichloro-N-(2,4-difluoro-3-(8-methyl-2-(methylamino)-7-oxo-7,8-dihydropyrido[2,3-d]pyrimidin-6-yl)phenyl)benzenesulfonamide]	100 to 300 nM	> 1000 nM
